Measurements as given in article PMC12169663, “Deciphering the Tumor Uptake of Heterobivalent (SST2/Albumin) [^64Cu]Cu-NODAGA-cLAB-TATEs” (Journal of Medicinal Chemistry, 2025).
pKd: −log10 of the molar value. Read-outs that look alike come from different tables or passages of the source. One block for each compound: values may come before it.

Experiments:
HSA [1] = molecular target: T1, HSA (Homo sapiens, UniProt P02768); assay: Kd[HSA] from SST2 saturation binding in presence of HSA, nonlinear regression with model of Blakeley et al.
From the text: Blakeley et al. developed a mathematical model that includes radioligand, protein (herein HSA), and target receptor (herein SST2) to derive the K d[HSA] value of the radioligand from saturation binding experiments to the target receptor in the presence of HSA. The authors specified an explicit mathematical solution for their proposed cubic equation and provided this solution also in a practical format for GraphPad Prism, which allows the analysis of experimental data but also simulations.

[2] = set-up: method as in not given; conditions: previously characterized; ref not given; cited from earlier work
HSA [3] = molecular target: T1, HSA; assay: Schild analysis of SST2 binding in the presence of HSA
Procedure: 5 Schild analysis of SST2 binding in the presence of HAS. […] Simulation was performed in GraphPad Prism (version 10.2.3) according to the solution in PRISM language provided by Blakeley et al. for their derived cubic equation. (B, C) Exemplary saturation binding curves of [^64Cu]-Cu-NODAGA-cLAB2-TATE (B) and [^64Cu]-Cu-NODAGA-TATE (C) to intact MPC cells in the presence of increasing concentrations of HSA. For each curve, data shown are mean values (±SD) of one experiment, which was performed in triplicate. […] This plot was analyzed by linear regression. The simulation data provide a slope of unity, while for [^64Cu]-Cu-NODAGA-cLAB2-TATE, a slope of 0.69 (CI of 95%: 0.48–0.90, R ^2 = 0.990) was obtained.
Analyzing the experimental data by nonlinear regression according to the model of Blakeley et al. with fixed values for [HSA], [SST2], and K d[SST2], provided the K d[HSA] values (Table ). […]
For Schild analysis, the ratio (similar to the agonist dose ratio, DR) between the apparent K d value in the presence of each HSA concentration and the K d value in the absence of HSA was calculated. Then, the logarithm of these DR minus 1 (log(DR-1)) was calculated and plotted against the log of the concentration of HSA. This plot was analyzed by linear regression with the x-intercept equals to the log(K d) value of the radioligand for HSA.

[4] = tested on: MPC tumor-bearing NMRI-nu/nu mice; set-up: method as in not given; conditions: previous study of the authors, ref not given, cited from earlier work
[5] = molecular target: human serum albumin (HSA) (Homo sapiens, UniProt P02768); assay: Radiometric ultrafiltration assay for binding to HSA
Procedure: The ultrafiltration assay used to quantify the binding of the ^64Cu-labeled peptides to HSA was performed as previously described for NODAGA-cLAB-TATEs. , Briefly, a constant activity amount of the radioligands (10–15 MBq) were mixed with different HSA concentrations (200 nM–1.4 mM). Aliquots were loaded into the ultrafiltration devices (4104 centrifugal filter units by Millipore; 30 000 Da nominal molecular weight limit, methylcellulose micropartition membranes) and centrifuged. After centrifugation, aliquots from the top and bottom fractions were measured in a γ-counter (PerkinElmer, Wizard^2 2480 automatic gamma counter). The retained fraction was calculated as a quotient of these measurements. The dissociation constant, K d, was calculated using the Morrison equation.

[6] = Plasma stability assay, mouse plasma; type: in vitro ADME
From the text: Previously, we discovered that the ^64Cu-labeled NODAGA-cLAB-TATEs with a primary amide functionality within the albumin-binding moiety are subject to a metabolic transformation in mouse plasma. In fact, the primary amide is slowly hydrolyzed to the carboxylic acid, which turned out to be catalyzed by plasma carboxylesterases as proven by blocking this transformation in the presence of bis-para-nitrophenylphosphate. […] As this transformation entails also an increase in the binding affinity to albumin, there might be effects on the biodistribution in mice, in particular the blood circulation time. To investigate this, NODAGA-cLAB6-TATE was designed, with cLAB6 (N3Bz-D-Lys(MPB)-NH2) representing the D-configured pendant of cLAB4 (N3Bz-L-Lys(MPB)-NH2). […] However, the apparent half-lives for both compounds (≈13 and >24 h) are longer compared to the half-lives previously determined for [ ^ 64 Cu]-Cu-NODAGA-cLAB3-TATE and [ ^ 64 Cu]-Cu-NODAGA-cLAB4-TATE (≈6 and ≈3 h, respectively). For better comparability, the stability of [ ^ 64 Cu]-Cu-NODAGA-cLAB4-TATE was again examined with the same mouse plasma batch used for [ ^ 64 Cu]-Cu-NODAGA-cLAB5-TATE and [ ^ 64 Cu]-Cu-NODAGA-cLAB4- scr TATE. […] Therefore, the discrepancy with our previously reported stability data in mouse plasma might result from differences in the activity of plasma carboxylesterases in the obtained mouse plasma. However, the rate of amide hydrolysis is indeed lower for [ ^ 64 Cu]-Cu-NODAGA-cLAB4- scr TATE, independent of the mouse plasma batch, which might indicate that the actual amino acid sequence in these peptides affects the recognition by the plasma carboxylesterases.
2 Stability of the ^64Cu-labeled TATE derivatives in mouse plasma. (A) Radio-HPLC chromatograms of [^64Cu]-Cu-NODAGA-cLAB5-TATE (red), [^64Cu]-Cu-NODAGA-cLAB6-TATE (green), and [^64Cu]-Cu-NODAGA-cLAB- scr TATE (blue) after ^64Cu-labeling and incubation in mouse plasma for 24 h show the transformation of [^64Cu]-Cu-NODAGA-cLAB5-TATE and [^64Cu]-Cu-NODAGA-cLAB4- scr TATE into a metabolite of higher retention time (see the Discussion for explanation). (B) Plot of residual intact radioligands upon incubation with mouse plasma including nonlinear regression (black line) according to one-phase decay for [^64Cu]-Cu-NODAGA-cLAB5-TATE (red circles). The dotted lines represent fractions of 0.5 and 0.9. Data shown are mean values (±SD) from 1 to 3 experiments (each experiment was performed in single execution). […]
(§1) Plasma stability of the radioligands was done as previously described for NODAGA-cLAB-TATE and NODAGA-NES-TATEs. , Briefly, an aliquot of the radioligand was added to plasma and stability was assessed at different time points by withdrawing an aliquot, followed by protein precipitation and analysis by radio-HPLC.

[7] = Plasma stability assay, human plasma; type: in vitro ADME; conditions: 37 °C, up to 24 h, single experiment, read-out: t1/2 (plasma), human
From the text: Previously, we discovered that the ^64Cu-labeled NODAGA-cLAB-TATEs with a primary amide functionality within the albumin-binding moiety are subject to a metabolic transformation in mouse plasma. In fact, the primary amide is slowly hydrolyzed to the carboxylic acid, which turned out to be catalyzed by plasma carboxylesterases as proven by blocking this transformation in the presence of bis-para-nitrophenylphosphate. […] As this transformation entails also an increase in the binding affinity to albumin, there might be effects on the biodistribution in mice, in particular the blood circulation time. To investigate this, NODAGA-cLAB6-TATE was designed, with cLAB6 (N3Bz-D-Lys(MPB)-NH2) representing the D-configured pendant of cLAB4 (N3Bz-L-Lys(MPB)-NH2). […] However, the apparent half-lives for both compounds (≈13 and >24 h) are longer compared to the half-lives previously determined for [ ^ 64 Cu]-Cu-NODAGA-cLAB3-TATE and [ ^ 64 Cu]-Cu-NODAGA-cLAB4-TATE (≈6 and ≈3 h, respectively). […]
as §1

MPC cells = assay: Cell binding and uptake (internalization) in MPC cells; type: cell-based, mouse
Procedure: Furthermore, the receptor-mediated endocytosis (referred to as internalization) of the novel compounds was assessed. The values for the internalized fraction (or “acid wash” resistant fraction) were >50% (Figure S5), which might indicate a similar pharmacological behavior of these ligands upon binding to SST2 as the parent ligand TATE.
Cell binding and uptake were measured as previously described. , MPC cells were seeded into collagen-coated 24-well microplates and cultivated for 4 days. All washing steps were performed using PBS containing 0.9 mM CaCl2 and 0.5 mM MgCl2. Total radioligand uptake was measured after incubation with the radioligand (A m = 30 GBq/μmol) at a final concentration of 20 nM in RPMI 1640 medium with GlutaMAX supplement (Thermo Fisher Scientific) for 1 h at 37 and 4 °C. Nonspecific binding was determined in the presence of 20 μM Acetyl-TATE. The uptake fraction was measured after acid wash of cell surface-bound radioligand with wash buffer containing 0.05 M glycine, pH 2.8, for 5 min. The activity of cell homogenates was measured using the γ counter Wizard (PerkinElmer). The protein content of cell homogenates was measured as described above.
Figure S5: Cell binding data
Data shown in A and B are mean values (±SD) of one experiment (NODAGA-cLAB(5/6)- TATE and NODAGA-cLAB4-scrTATE) or 3 experiments (±SEM, DOTA-EB-TATE), which were performed in sextuplicate. In C, the amount of specific “internalized” (acid resistant) radioligand (red bars in A, mean values) is expressed as percentage of specific total -bound radioligand (blue bars in A, mean values). The difference to 100% was assigned to “surface - bound” radioligand. For a better overview, the compound names were abbreviated. […]
specific binding of radioligand
Incubation at 37°C for 1 h
(% dose/mg of protein) Washing with
Incubation at 4°C for 1 h […]
(1 picture or pasted object on this page, not shown here)

[8] = n-Octanol/PBS distribution coefficient (log D7.4)
Procedure: The log D7.4 values of the ^64Cu-labeled peptides were determined with the octanol partitioning method.
The determination of the log D7.4 value was done in triplicate as previously described. , Briefly, a sample of the radioligand was added to the 1:1 mixture of PBS/n-octanol. The radioactivity in a defined volume of each layer was measured (ISOMED 2100). The distribution coefficient was expressed as the logarithm of the ratio of counts per minute (cpm) measured in the n-octanol phase to the cpm measured in the PBS phase.

[9] = Small-animal PET imaging in subcutaneous MPC tumor allograft model; conditions: female, NMRI-nu/nu (Rj:NMRI-Foxn1nu/nu), mouse, tumor, iv, total radioactivity
Procedure: (§2) The biodistribution of [ ^ 64 Cu]­Cu-NODAGA-cLAB­(5/6)-TATE, [ ^ 64 Cu]­Cu-NODAGA-cLAB4- scr TATE, and [ ^ 64 Cu]­Cu-DOTA-EB-TATE was assessed in a subcutaneous MPC tumor allograft model via small-animal PET imaging (Figure A–D). The time-activity curves (TACs) for tumor, kidneys, and heart are shown in Figure A–D (for TACs of muscle and liver, see Figure S6) and the calculated areas under curves (AUC0–48h) and tumor-to-tissue ratios are graphically summarized in Figure E,F, respectively.
(§3) (A–D) Time-activity curves (SUV, decay-corrected, as a function of time up to 48 h) obtained by PET acquisition are depicted (0–2 h in dynamic mode and time points 5, 24, and 48 h p.i.; the x-axes are segmented accordingly). Data shown are mean values (±SD) of a group of MPC tumor-bearing NMRI-nu/nu mice (n = 2, but for cLAB6-TATE n = 4). […] (E) Calculated AUC0–48h values. Data shown are mean values (±SD). (F) Tumor/organ ratios based in the AUC0–48h values.
(§4) A number of 4 × 10^6 MPC cells were resuspended in 40 μL of Dulbecco’s phosphate-buffered saline and injected subcutaneously into the shoulder of 7–10-week-old female nude mice (Rj:NMRI-Foxn1^nu/nu, Janvier Laboratories, Le Genest-Saint-Isle, France). General anesthesia was induced and maintained with inhalation of 10% (v/v) desflurane in 30% oxygen/air (v/v). Tumor growth was monitored using caliper measurements. Animals were sacrificed using CO2 inhalation and cervical dislocation. When diameters of MPC tumors reached 8 ± 3 mm (volumes of 65–282 mm^3), small-animal positron emission tomography (PET) was performed using the nanoScan PET/CT (Mediso Medical Imaging Systems, Budapest, Hungary) and Si78 PET/CT (BRUKER, Billerica, MA) instruments. Scanners were cross-calibrated using a syringe source containing 10 MBq of [^64Cu]­CuCl2 diluted in 2 mL of 0.01 M HCl. Each mouse (n = 2) received between 7 and 10 MBq of the respective radioligand (A m = 40 GBq/μmoL) delivered in 0.154 M NaCl via intravenous injection through a tail vein catheter within the initial 30 s after scan start. […] Standardized uptake values (SUV = [MBq detected activity/mL tissue]/[MBq injected activity/g body weight]) were determined in defined volumes of interest (VOIs) and reported as VOI-averaged SUVmean ± range [min–max]. Assuming a density of 1 g/mL for body tissues, the SUVs become dimensionless.

[10] = tested on: MPC tumor-bearing NMRI-nu/nu mice; assay: as above; conditions: PET, i.v., 7–10 MBq/animal
Procedure: as §2, §3, §4

[11] = 1–100 μM HSA, read-out: Kd[HSA] derived from saturation binding, range over the HSA concentrations
[12] = [HSA] 20 μM, read-out: Kd[HSA] derived from saturation binding
[13] = [HSA] 40 μM, read-out: Kd[HSA] derived from saturation binding
[14] = [HSA] 100 μM, read-out: Kd[HSA] derived from saturation binding

T1 sequence (P02768 25-609): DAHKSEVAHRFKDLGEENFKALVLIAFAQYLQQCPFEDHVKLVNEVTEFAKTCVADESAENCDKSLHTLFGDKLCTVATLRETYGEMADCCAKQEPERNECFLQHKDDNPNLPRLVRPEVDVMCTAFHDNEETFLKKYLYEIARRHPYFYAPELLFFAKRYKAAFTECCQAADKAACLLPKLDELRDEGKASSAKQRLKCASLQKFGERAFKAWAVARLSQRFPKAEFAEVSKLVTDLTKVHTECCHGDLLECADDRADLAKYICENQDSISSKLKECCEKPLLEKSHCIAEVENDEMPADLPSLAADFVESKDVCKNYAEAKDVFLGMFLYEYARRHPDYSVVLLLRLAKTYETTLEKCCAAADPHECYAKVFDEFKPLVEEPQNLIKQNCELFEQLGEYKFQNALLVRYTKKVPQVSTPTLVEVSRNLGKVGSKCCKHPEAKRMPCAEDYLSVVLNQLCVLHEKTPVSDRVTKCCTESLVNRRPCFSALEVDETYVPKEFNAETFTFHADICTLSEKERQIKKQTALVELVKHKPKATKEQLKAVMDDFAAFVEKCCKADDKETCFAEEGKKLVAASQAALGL
human serum albumin (HSA), sequence (P02768 25-609): as above

pKd (HSA [1]; [11]): 3.97 to 5.41 | pKd (HSA [1]; [HSA] 1 μM, read-out: Kd[HSA] derived from saturation binding): 5.25 | pKd (HSA [1]; [HSA] 5 μM, read-out: Kd[HSA] derived from saturation binding): 5.40 | pKd (HSA [1]; [12]): 5.41 | pKd (HSA [1]; [13]): 4.78 | pKd (HSA [1]; [14]): 3.97
SMILES: C[C@@H](O)[C@H](NC(=O)[C@@H]1CSSC[C@H](NC(=O)[C@@H](Cc2ccccc2)NC(=O)CC[C@H](C(=O)O)N2CCN(CC(=O)O)CCN(CC(=O)O)CC2)C(=O)N[C@@H](Cc2ccc(O)cc2)C(=O)N[C@H](Cc2c[nH]c3ccccc23)C(=O)N[C@@H](CCCCN)C(=O)N[C@@H]([C@@H](C)O)C(=O)N1)C(=O)O [[64Cu]Cu-NODAGA-TATE, metal not drawn]
log D7.4 [2]: −3.43

pKd (HSA [1]; [11]): 5.21 to 5.59 | pKd (HSA [1]; [12]): 5.51 | pKd (HSA [1]; [13]): 5.59 | pKd (HSA [1]; [14]): 5.21 | slope of Schild plot (HSA [3]; linear regression, CI of 95%: 0.48–0.90): 0.69 | pKd (HSA [3]; x-intercept of Schild plot, 5–100 μM HSA): 5.74 | fu ([5]; 1 μM HSA, fu=Kd/(Bmax+Kd)): 0.64 | fu ([5]; 5 μM HSA): 0.26 | fu ([5]; 20 μM HSA): 0.08 | fu ([5]; 40 μM HSA): 0.04 | fu ([5]; 100 μM HSA): 0.02
SMILES: C[C@@H](O)[C@H](NC(=O)[C@@H]1CSSC[C@H](NC(=O)[C@@H](Cc2ccccc2)NC(=O)COCCOCCNC(=O)[C@H](Cc2cn(-c3ccc(C(=O)N[C@@H](CCCCNC(=O)CCCc4ccc(I)cc4)C(=O)O)cc3)nn2)NC(=O)CC[C@H](C(=O)O)N2CCN(CC(=O)O)CCN(CC(=O)O)CC2)C(=O)N[C@@H](Cc2ccc(O)cc2)C(=O)N[C@H](Cc2c[nH]c3ccccc23)C(=O)N[C@@H](CCCCN)C(=O)N[C@@H]([C@@H](C)O)C(=O)N1)C(=O)O [[64Cu]Cu-NODAGA-cLAB2-TATE, metal not drawn]
tumor SUVmean ([4]; 24 h p.i.): 3.1 | tumor SUVmean ([4]; 48 h p.i.): 2.4 | AUC0–48h[tumor] ([4]; same MPC model): 123 SUVmean*h

half-life ([6]; 37 °C, up to 24 h, single experiment, read-out: t1/2 (plasma), mouse): ~13 h | hydrolysis of the primary amide in mouse plasma ([6]; 24 h, radio-HPLC): hydrolyzed | half-life [7]: > 24 h | logD [8]: -2.27 | pKd [5]: 3.36 | SUV [9]: 8.9 SUV | SUV at 2 h [9]: 7.9 SUV | SUV at 4 h [9]: 4.9 SUV | SUV at 24 h [9]: 2.3 SUV | AUC0-48h heart [10]: 5.98 SUVmean*h | AUC0-48h kidney [10]: 32.36 SUVmean*h | AUC0-48h liver [10]: 22.25 SUVmean*h | AUC0-48h tumor [10]: 148 SUVmean*h | AUC0-48h tumor ([10]; listed as cLAB5): 148.10 SUVmean*h
SMILES: C[C@@H](O)[C@H](NC(=O)[C@@H]1CSSC[C@H](NC(=O)[C@@H](Cc2ccccc2)NC(=O)COCCOCCNC(=O)[C@H](Cc2cn(-c3ccc(C(=O)N[C@@H](CCCCNC(=O)CCCc4ccc(F)cc4)C(N)=O)cc3)nn2)NC(=O)CC[C@H](C(=O)O)N2CCN(CC(=O)O)CCN(CC(=O)O)CC2)C(=O)N[C@@H](Cc2ccc(O)cc2)C(=O)N[C@H](Cc2c[nH]c3ccccc23)C(=O)N[C@@H](CCCCN)C(=O)N[C@@H]([C@@H](C)O)C(=O)N1)C(=O)O [[64Cu]Cu-NODAGA-cLAB5-TATE, metal not drawn]
specific binding of radioligand (MPC cells; incubation at 4 °C for 1 h, washing with PBS pH 7.4, 20 nM): 0.94 % dose/mg of protein | specific binding of radioligand (MPC cells; incubation at 4 °C for 1 h, washing with glycine buffer pH 2.8, 20 nM): 0.30 % dose/mg of protein | specific binding of radioligand (MPC cells; incubation at 37 °C for 1 h, washing with PBS pH 7.4 (total bound), 20 nM): 5.74 %dose/mg of protein | specific binding of radioligand (MPC cells; incubation at 37 °C for 1 h, washing with glycine buffer pH 2.8 (acid resistant), 20 nM): 3.34 %dose/mg of protein
